Patent publication US10736326B2, “Nematode dispersant composition and method” (PHERONYM, INC., priority 2016, dated 2020)
“Also recorded” adds a separate entry of the source.

Test system: S. feltiae infective juveniles (IJ)
Experiment: Dispersal assay with S. feltiae infective juveniles on agar plates
Assay type: in vivo, Steinernema feltiae
Settings: S. feltiae IJs; for dispersal activity in combination with fractions B and C: ascr#11 1.3 pmol/μl, FIG. 1C, 1D; for dispersal activity by itself: physiologically relevant concentration (ascr#9 40.3 pmol/μl, ascr#11 1.3 pmol/μl), FIG. 1B
Experimental: The dispersal assay for the activity guided purification in FIG. 1 used S. feltiae IJs that were washed with MILLI-Q water three times and incubated in 6 cm petri dishes for 36 h with a small amount (4-5 ml) of MILLI-Q water. The following day, nematodes were placed on a 10.7 g/L agar with gel strength 1010 g/cm^2 (PhytoTechnology Lab. Shawnee Mission, Kans.). Nematode behavior was assayed on multiple plates with internal plate replicates to rule out the possibility that behavior was affected by plate composition. Approximately 300 IJs in 10 μl water were placed on an agar medium and the test compounds or extracts were placed into 1-2 μl to the nematode suspension. Upon absorption (15-20 min) of the liquid, the freely moving nematodes were video-recorded for 5-10 min. Dispersal behavior is temperature and season dependent. During winter, the assay is effective at RT (22±1° C.). During summer, the assay requires a temperature-controlled environment due to effects on nematode behavior above 23° C.
Activity guided fractionation was conducted as described by Srinivasan et al 2008 with modifications. A total of 33 insect host cadavers (G. mellonella larvae) were placed into 70% EtOH and stored at −20° C. until extraction. The insect cadavers were homogenized using 1 g of ceramic zirconium beads (1.25 mm) (ZIRMIL) in 2 ml tubes for 37 sec using a Precellys24 (http://www.precellys.com) homogenizer. Samples were centrifuged for 15 min at 18400 rcf and the supernatant was lyophilized and resuspended in MILLI-Q water. The dispersal activity of nematodes was tested using the dispersal assay described herein above and a physiologically relevant concentration of insect host cadaver extract or fractionated extract. To facilitate calculations for physiologically relevant concentration of the ascarosides, wax worm volume was estimated at 200 μl; the average weight of wax worms was 232 (+/−57 mg; n=19).
The first reverse-phase solid-phase extraction was performed using Sep-Pak Plus C18 cartridges (Waters corporation, Milford, Mass.). The initially collected flow through was termed Fraction A. Thereafter, the column was washed with water, collected and saved. Subsequently, the column was eluted with 50% (Fraction B) and 90% MeOH (Fraction C). The fractions were tested for dispersal activity both individually and in combination. Also individual fractions were analyzed by LC-MS. Fraction A contained ascr#9, which was collected by LC-MS and tested for activity with Fraction B+C.
A total of 33 insect host cadavers ([…] larvae) were placed into 70% EtOH and were homogenized using 1 g of ceramic zirconium beads (1.25 mm) (ZIRMIL) in 2 ml tubes for 37 sec using a Precellys24 (http://www.precellys.com) homogenizer. Samples were centrifuged for 15 min at 18400 rcf and the supernatant was lyophilized and resuspended in MILLI-Q water. The dispersal activity of nematodes was tested using the dispersal assay described herein above. The extracts were resuspended in water as 10 times concentrated. The average weight of insect host is estimated 200 microL and therefore the dry cadavers extract from 1 insect equivalent was diluted in 20 microL of water. One microL of the concentrated extracts was added to the 10 ul of IJ water suspension.

## C[C@H](CCC(=O)O)O[C@@H]1O[C@@H](C)[C@H](O)C[C@H]1O [ascr#9]
Listed as natural ascr#9
  dispersal activity in combination with fractions B and C: active
Listed as synthetic ascr#9
  dispersal activity in combination with fractions B and C: confirms the active component
  dispersal activity by itself: not active by themselves

## C[C@H](CC(=O)O)O[C@@H]1O[C@@H](C)[C@H](O)C[C@H]1O [ascr#11]
  dispersal activity in combination with fractions B and C: sufficient to cause dispersal; also recorded: active with the other two fractions
  dispersal activity by itself: not active by themselves
